Experimental data published in PubChem BioAssay (NCI).
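Tested at 5 concentrations; 48 h exposure; 96-well plates; endpoints linearly interpolated, else capped at highest concentration. Here, GI50 denotes the concentration required for 50% inhibition of growth. The concentration for full growth arrest is given as TGI.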

How the values were obtained:
Experiment in all cases: growth of human tumour cells (NCI), 48 h
[1] = test system: NCI-H460 lung
[2] = test system: UO-31 renal
[3] = test system: A498 renal
[4] = test system: EKVX NSCLC
[5] = test system: HT29 colon
[6] = test system: HOP-92 NSCLC
[7] = test system: MCF7 breast
[8] = test system: SF-295 CNS
[9] = test system: PC-3 prostate
[10] = test system: KM12 colon
[11] = test system: NCI-H522 lung
[12] = test system: LOX IMVI melanoma
[13] = test system: COLO 205 colon
[14] = test system: ACHN renal
[15] = test system: M14 melanoma
[16] = test system: MALME-3M melanoma
[17] = test system: NCI-H226 lung
[18] = test system: HCT-116 colon
[19] = test system: RXF 393 renal
[20] = test system: HS 578T breast
[21] = test system: HCC-2998 colon
[22] = test system: SK-MEL-28 melanoma
[23] = test system: NCI-H23 lung
[24] = test system: IGROV1 ovarian
[25] = test system: SK-MEL-2 melanoma
[26] = test system: SNB-19 CNS
[27] = test system: OVCAR-5 ovarian
[28] = test system: T-47D breast
[29] = test system: SK-MEL-5 melanoma
[30] = test system: OVCAR-8 ovarian
[31] = test system: MDA-MB-435
[32] = test system: K-562 leukemia
[33] = test system: SW-620 colon
[34] = test system: CAKI-1 renal
[35] = test system: HCT-15 colon
[36] = test system: A549 NSCLC
[37] = test system: UACC-257 melanoma
[38] = test system: SF-539 CNS
[39] = test system: TK-10 renal
[40] = test system: SNB-75 CNS
[41] = test system: MOLT-4 leukemia
[42] = test system: CCRF-CEM leukemia
[43] = test system: OVCAR-4 ovarian
[44] = test system: HL-60(TB) leukemia
[45] = test system: SK-OV-3 ovarian
[46] = test system: NCI/ADR-RES ovarian
[47] = test system: SN12C renal
[48] = test system: 786-0 renal
[49] = test system: SF-268 CNS
[50] = test system: BT-549 breast
[51] = test system: U251 CNS
[52] = test system: DU-145 prostate
[53] = test system: RPMI-8226 leukemia
[54] = test system: SR leukemia
[55] = test system: UACC-62 melanoma
[56] = test system: MDA-MB-231 breast
[57] = test system: OVCAR-3 ovarian

In the case of `O=C(CN1CCN(c2ccccn2)CC1)Nc1ccc(Cl)cc1C(=O)c1ccccc1Cl`, the GI50 [1] was 93.6 µM, the TGI [1] was > 100 µM and the GI50 [2] was 9.38 µM. For the same compound, the TGI [2] was > 100 µM, the GI50 [3] was 24.5 µM and the TGI [3] was > 100 µM. For the same compound, the GI50 [4] was 45.4 µM, the TGI [4] was > 100 µM and the GI50 [5] was 8.92 µM. The TGI [5] was > 100 µM, the GI50 [6] was 2.52 µM and the TGI [6] was 53.7 µM. The GI50 [7] was 9.26 µM, the TGI [7] was > 100 µM and the GI50 [8] was 30.5 µM. The TGI [8] was > 100 µM, the GI50 [9] was 6 µM and the TGI [9] was > 100 µM. For the same compound, the GI50 [10] was 7.73 µM, the TGI [10] was > 100 µM and the GI50 [11] was 16.6 µM. For the same compound, the TGI [11] was > 100 µM, the GI50 [12] was 41.6 µM and the TGI [12] was > 100 µM. For the same compound, the GI50 [13] was > 100 µM, the TGI [13] was > 100 µM and the GI50 [14] was 56.1 µM. For the same compound, the TGI [14] was > 100 µM, the GI50 [15] was 50.9 µM and the TGI [15] was > 100 µM. For the same compound, the GI50 [16] was > 100 µM, the TGI [16] was > 100 µM and the GI50 [17] was > 100 µM. The TGI [17] was > 100 µM, the GI50 [18] was 10 µM and the TGI [18] was > 100 µM. The GI50 [19] was > 100 µM, the TGI [19] was > 100 µM and the GI50 [20] was > 100 µM. The TGI [20] was > 100 µM, the GI50 [21] was > 100 µM and the TGI [21] was > 100 µM. The GI50 [22] was > 100 µM, the TGI [22] was > 100 µM and the GI50 [23] was 86.2 µM. For the same compound, the TGI [23] was > 100 µM, the GI50 [24] was 89.2 µM and the TGI [24] was > 100 µM. The GI50 [25] was > 100 µM, the TGI [25] was > 100 µM and the GI50 [26] was 79.6 µM. The TGI [26] was > 100 µM, the GI50 [27] was > 100 µM and the TGI [27] was > 100 µM. The GI50 [28] was 3.89 µM, the TGI [28] was > 100 µM and the GI50 [29] was 10.2 µM. The TGI [29] was 38.3 µM, the GI50 [30] was > 100 µM and the TGI [30] was > 100 µM. The GI50 [31] was 28.4 µM, the TGI [31] was > 100 µM and the GI50 [32] was 3.55 µM. The TGI [32] was > 100 µM, the GI50 [33] was > 100 µM and the TGI [33] was > 100 µM. The GI50 [34] was > 100 µM, the TGI [34] was > 100 µM and the GI50 [35] was 7.85 µM. For the same compound, the TGI [35] was > 100 µM, the GI50 [36] was 14.3 µM and the TGI [36] was > 100 µM. For the same compound, the GI50 [37] was 54.9 µM, the TGI [37] was > 100 µM and the GI50 [38] was 45.9 µM. The TGI [38] was > 100 µM, the GI50 [39] was > 100 µM and the TGI [39] was > 100 µM. The GI50 [40] was > 100 µM, the TGI [40] was > 100 µM and the GI50 [41] was 5.49 µM. For the same compound, the TGI [41] was > 100 µM, the GI50 [42] was 9.99 µM and the TGI [42] was > 100 µM. The GI50 [43] was 13.9 µM, the TGI [43] was > 100 µM and the GI50 [44] was 5.51 µM. For the same compound, the TGI [44] was > 100 µM, the GI50 [45] was > 100 µM and the TGI [45] was > 100 µM. The GI50 [46] was 86.8 µM, the TGI [46] was > 100 µM and the GI50 [47] was > 100 µM. For the same compound, the TGI [47] was > 100 µM, the GI50 [48] was 1.57 µM and the TGI [48] was > 100 µM. For the same compound, the GI50 [49] was > 100 µM, the TGI [49] was > 100 µM and the GI50 [50] was 81.4 µM. For the same compound, the TGI [50] was > 100 µM, the GI50 [51] was > 100 µM and the TGI [51] was > 100 µM. For the same compound, the GI50 [52] was > 100 µM, the TGI [52] was > 100 µM and the GI50 [53] was 4.64 µM. For the same compound, the TGI [53] was > 100 µM, the GI50 [54] was 6.63 µM and the TGI [54] was > 100 µM. The GI50 [55] was 12.8 µM and the TGI [55] was > 100 µM.

For `CCc1ncc(C(C)(O)c2ccccc2)n1Cc1ccccc1` (stereo not drawn), the TGI [1] was > 100 µM, the TGI [2] was > 100 µM and the TGI [4] was > 100 µM. The TGI [5] was > 100 µM, the TGI [6] was > 100 µM and the TGI [7] was > 100 µM. For the same compound, the TGI [8] was > 100 µM, the TGI [9] was > 100 µM and the TGI [10] was > 100 µM. For the same compound, the TGI [11] was > 100 µM, the TGI [56] was 96.3 µM and the TGI [12] was 94 µM. For the same compound, the TGI [13] was > 100 µM, the TGI [14] was > 100 µM and the TGI [15] was 13 µM. The TGI [16] was > 100 µM, the TGI [17] was > 100 µM and the TGI [18] was 11 µM. The TGI [19] was > 100 µM, the TGI [20] was > 100 µM and the TGI [22] was > 100 µM. For the same compound, the TGI [23] was > 100 µM, the TGI [24] was > 100 µM and the TGI [25] was > 100 µM. For the same compound, the TGI [26] was > 100 µM, the TGI [27] was > 100 µM and the TGI [28] was > 100 µM. For the same compound, the TGI [29] was 40.6 µM, the TGI [30] was > 100 µM and the TGI [31] was 48.1 µM. The TGI [32] was > 100 µM, the TGI [33] was > 100 µM and the TGI [34] was > 100 µM. For the same compound, the TGI [35] was > 100 µM, the TGI [36] was > 100 µM and the TGI [57] was > 100 µM. For the same compound, the TGI [37] was > 100 µM, the TGI [38] was > 100 µM and the TGI [39] was > 100 µM. For the same compound, the TGI [40] was > 100 µM, the TGI [41] was 65.1 µM and the TGI [42] was > 100 µM. The TGI [43] was > 100 µM, the TGI [45] was > 100 µM and the TGI [46] was > 100 µM. For the same compound, the TGI [47] was 60.6 µM, the TGI [49] was > 100 µM and the TGI [50] was > 100 µM. For the same compound, the TGI [51] was > 100 µM, the TGI [52] was > 100 µM and the TGI [53] was > 100 µM. The TGI [54] was 44.1 µM and the TGI [55] was 54.2 µM.
